A short description of the test: Inhibition of capsid protein in HBV infected in human HepDES19 cells assessed as inhibition of viral replication incubated for 3 days by strand preferential qPCR analysis. (In general: In qPCR the cycle at which signal appears reflects the starting amount.)

Turning to `CCOC(=O)C1=C(CN2CC3(CC2=O)CN(C(=O)OC(C)(C)C)C3)NC(c2nccs2)=NC1c1ccc(F)cc1Br` (centres undefined), the half-maximal effective concentration (EC50) (commonly the concentration needed to bring the measured effect to its halfway point) is 13.3 µM. For `CCOC(=O)C1=C(CN2CCC3(CCN(C(=O)OC(C)(C)C)C3)C2=O)NC(c2nccs2)=NC1c1ccc(F)cc1Br` (centres undefined) the value was 5.17 µM. For `CCOC(=O)C1=C(CN2CC3(CCN(C(=O)OC(C)(C)C)C3)CC2=O)NC(c2nccs2)=NC1c1ccc(F)cc1Br` (centres undefined) the value was 10 µM. Under `CCOC(=O)C1=C(CN2CCC3(CNC(=O)C3)C2)NC(c2nccs2)=NC1c1ccc(F)cc1Br` (centres undefined) stands 2.6 µM; under `CCOC(=O)C1=C(CN2CCC3(CC2)CNC(=O)C3)NC(c2nccs2)=NC1c1ccc(F)cc1Br` (centres undefined), 3.8 µM; under `CCOC(=O)C1=C(CN2CCC3(CC2)CNC3=O)NC(c2nccs2)=NC1c1ccc(F)cc1Br` (centres undefined), 1.17 µM. `CCOC(=O)C1=C(CN2CCC3(CC(=O)N(Cc4ccccc4)C3=O)C2)NC(c2nccs2)=NC1c1ccc(F)cc1Br` (centres undefined): the EC50 turned out to be 2.1 µM. Under `CCOC(=O)C1=C(CN2CCC3(CC2)OCCO3)NC(c2nccs2)=NC1c1ccc(F)cc1Br` (centres undefined) stands 0.2 µM; under `CCOC(=O)C1=C(CN2CCC3(CC2)CN(C(=O)OC(C)(C)C)C3)NC(c2nccs2)=NC1c1ccc(F)cc1Br` (centres undefined), 10.4 µM; under `CCOC(=O)C1=C(CN2CCC3(CCN(C(=O)OC(C)(C)C)C3)C2)NC(c2nccs2)=NC1c1ccc(F)cc1Br` (centres undefined), 4.83 µM. For `CCOC(=O)C1=C(CN2CCC3(C2)CN(C(=O)OC(C)(C)C)C3)NC(c2nccs2)=NC1c1ccc(F)cc1Br` (centres undefined) the value was 8.83 µM; for `CCOC(=O)C1=C(CN2CCC3(CCNC3=O)CC2)NC(c2nccs2)=NC1c1ccc(F)cc1Br` (centres undefined), 3.43 µM. On to `CCOC(=O)C1=C(CN2CCC3(CC2)CC(=O)NC3=O)NC(c2nccs2)=NC1c1ccc(F)cc1Br` (centres undefined), for which the EC50 came out at 0.68 µM.

Regarding `Nc1ccn([C@@H]2CS[C@H](CO)O2)c(=O)n1` [Epivir], the EC50 was determined as 0.37 µM.

The record behind these values is BindingDB's records for doi:10.1016/j.ejmech.2021.113780 (Shandong University, 2021).
